Experimental data reported in patent US20130030009A1, “METHOD FOR THE TREATMENT AND/OR PREVENTION OF ORAL ALLERGIC SYMPTIONS OF THE LIPS DUE TO ORAL CONTACT WITH A FOOD ALLERGEN” (priority 2010, published 2013).

Columns and labels:
[1] = tested on: patients afflicted with oral allergy syndrome; assay: Cromolyn Sodium mouth rinse in patients afflicted with oral allergy syndrome; format: in vivo
Excerpt: Using the teachings of the co-pending patent application entitled “PREPARATIONS FOR TOPICAL PREVENTION AND/OR TREATMENT OF ORAL […] SYMPTOMS DUE TO ORAL CONTACT WITH FRUITS AND/OR VEGETABLES”, filed Dec. […] These patients experienced much relief of their oral allergy and throat allergy symptoms. […] Thus, it seems that sometimes mouth rinsing of Cromolyn Sodium fails to deliver sufficient Cromolyn Sodium to the mast cells of the lip.

[2] = when swallowed may include headache, GI upset, itchiness, irritability, rash, muscle pain; cited from earlier work

O=C(O)c1cc(=O)c2c(OCC(O)COc3cccc4oc(C(=O)O)cc(=O)c34)cccc2o1 [Cromolyn Sodium]
lip itchiness of internal and external lip surfaces after mouth rinse [1]: some individuals still experienced lip itchiness
relief of oral allergy and throat allergy symptoms [1]: much relief
side effects [2]: very uncommon
